Assay results as given in patent US11622964B2, “Method for destroying cellular mechanical homeostasis and promoting regeneration and repair of tissues and organs, and use thereof” (INSTITUTE OF ZOOLOGY, CHINESE ACADEMY OF SCIENCES, priority 2018, dated 2023).

Columns and labels:
[1] = test system: CCl4-induced mild hepatic fibrosis; assay: CCl4-induced mild hepatic fibrosis model; assay type: in vivo, mice; details: 1 mg or 3 mg per kg per day, intraperitoneal or tail vein injection, 1-2 weeks
Experimental: The ICR, C57Bl/6 mice used in the experiment are purchased from SPF (Beijing) Biotechnology Co., Ltd., carbon tetrachloride is purchased from Aladdin Reagent (Shanghai) Co., Ltd. (C131583-1L), and corn oil is purchased from Sigma (C8267). 8-week-old female mice are selected and housed in the barrier for one week, they are randomly divided into two groups, and respectively injected with CCl4/corn oil (a volume ratio of 2:5) and corn oil. The dose of CCl4 is 0.5 ml/kg, twice a week for 4 weeks. After 4 weeks, the mice are anesthetized with 5% chloral hydrate, and part of the hepatic lobe is taken out, fixing with 4% paraformaldehyde, dehydrating and immersing in wax, then staining with Sirius Red (YY-R20384-100ML) kit for fibrosis, wherein the collagenous fibers are red, as shown in FIG. 2B. After successful identification of the modeling, the drug administration is performed by intraperitoneal injection or tail vein injection. The small molecule is dissolved in dimethyl sulfoxide at a concentration of 1 mg or 3 mg per kg per day; successfully adding 2-5% DMSO+30% propylene glycol+2% Tween 80+ddH2O, and the control group (“Control”) is abbreviated as “Con” in the figure. […]

[2] = test system: mouse hepatic stellate cells (mHSCs); assay: TGF-β1-induced transformation of mouse hepatic stellate cells into myofibroblasts; assay type: cell-based; details: 20 μM, 3 ng/ml TGF-β1, 7 days
From the text: In this example, cell models for in vitro fibrosis are respectively built to activate mouse hepatic stellate Cells (mHSCs, FIG. 13(B)), mouse embryonic fibroblasts (MEFs FIG. 13(C)), mouse adult liver, lung, and heart-derived primary mesenchymal cells (priMCs, FIG. 13(D)), and human hepatic stellate cells (hLX-2, FIG. 13(E)) into myofibroblasts through the induction of TGF-β1. The specific experimental procedure is as shown in FIG. 9A: a medium containing 10% serum is used for the initial cell culture; after 24 hours the medium is replaced with low serum medium (or pre-starvation treatment for 16 hours) while adding 3 ng/ml TGF-β1 with DMSO or Bleb (20 μM); after 7 days the expression of myofibroblast activation marker protein (Acta2), collagen (Col1a1, Col1a2, Col3a1, and Col1a2), and matrix metalloproteinases and inhibitors (collagenases: MmP8, and MmP13; gelatinases: MmP2, and MmP9; a metalloproteinase inhibitor: Timp1/2/3) are identified.

[3] = test system: human embryonic hepatocytes; assay: In vitro amplification of human embryonic hepatocytes; assay type: cell-based; details: for cell amplification multiple: 12 days of passage culture (3 generations)
Experimental: Resuscitation of Human Embryonic Hepatocytes: human embryonic hepatocytes are removed from a liquid nitrogen tank (aborted fetus, frozen storage date is Jan. 15, 2014, frozen stock solution is cell banker 2, frozen cell number is 2×10^7/tube), quickly placing in a 37° C. water bath; and after melting the cells are immediately inhaled into a 15 ml centrifuge tube containing 5 ml of hepatocyte medium (control group), centrifuging at 50 g, 4° C. for 5 min; the supernatant is discarded, and the cells are resuspended in 500 ul hepatocyte medium and calculated as 1.16×10^6 with a cell recovery rate of 5.8%.
Inoculation of Human Embryonic Hepatocytes: inoculation density is 1×10^5/24 well plate, adding 500 μl hepatocyte medium (control group), hepatocyte medium containing 10 μM small molecules, and hepatocyte medium containing 20 μM small molecules respectively; 24 hours after inoculating, 3 wells of cells in each group are digested respectively to count the number of the cells, then calculating the cell adherent rate. 72 hours after inoculating, 3 wells of cells in each group are digested respectively to count the number of the cells. Multiple of the change of cell number may be obtained through dividing the number of cells at 72 hours after inoculation by the number of cells at 24 hours after inoculation. A portion of the cells per well (⅖ of the cell count) are taken for RNA extraction so as to detect human hepatocyte-related gene expression.
The First Passage of Human Embryonic Hepatocytes: cells are respectively inoculated into a 24-well plate coated with rat tail collagen (as described above), and the inoculum density is ⅗ of the number of cells after 72 hours of primary culture; 3 duplicate wells per group. After 72 hours of cell culture, the cells are digested to count the number. Multiple of the first passage amplification may be obtained through dividing the counted number of cells by the number of cells at the time of inoculation. A portion of the cells per well (⅖ of the cell count) are taken for RNA extraction so as to detect human hepatocyte-related gene expression.
The Second Passage of Human Embryonic Hepatocytes: cells are respectively inoculated into a 24-well plate coated with rat tail collagen (as described above), and the inoculum density is ⅗ of the number of cells after 72 hours of the first passage culture. […] After changing the medium every 2 days and continuing to culture for 144 hours (6 days), the cells are digested and counted. Multiple of the second passage amplification may be obtained through dividing the counted number of cells by the number of cells at the time of inoculation. […]

## Cc1ccc2c(c1)C(=O)[C@]1(O)CCN(c3ccccc3)C1=N2 [(−)-blebbistatin]
[1]
  fibrosis (Sirius red staining): significantly inhibits
[2]
  TGF-β1 induced transformation into myofibroblasts and extracellular matrix synthesis: significantly inhibits
[3]; 20 μM Bleb medium
  cell amplification multiple: about 13 times
[3]; 10 μm small-molecule medium
  cell amplification multiple: about 22.1 times
[3]; 12 days of passage culture in 10 μM and 20 μM small molecule media
  expression of human hepatocyte-specific genes ALB and AFP (real-time quantitative PCR): still express human hepatocyte-specific genes
[3]; after 12 days of passage culture in small molecule medium
  cell morphology: typical hepatocyte morphology
